Reference: patent US10420751B2, “Methods of treating inflammatory bowel disease with AMD3100 and tacrolimus” (priority 2009, dated 2019)
Where two headings read alike, the source gives them in different places.

Experiments:
[1] = tested on: small liver allograft (DA into Lewis rats); assay: Small liver transplantation, acute rejection model: survival; settings: for recipient survival / liver allograft acceptance: small liver DA into Lewis, FK-506 0.1 mg/kg/day and/or AMD3100 1 mg/kg/day s.c. day 0,1,2,3,7, controls rejected within 12 days; for survival of one of five recipients: small liver, low dose FK-506 0.1 mg/kg/day alone
Method: Orthotopic liver transplantation (OLT) was performed under isoflurane (Abbott laboratories, North Chicago, Ill.) inhalation anesthesia according to a method modified from previously described. Small liver transplantation consisted of removal of the left lateral lobe, the left portion of the median lobe, and the anterior and posterior caudate lobes. This reduced the liver mass by about 50%. The livers were flushed in situ with 10 ml cold saline via the portal vein, explanted and immersed in cold saline solution. The host liver was excised by ligation and division of the right adrenal and lumbar veins. The hepatic artery was ligated and divided. The bile duct was cannulated by insertion of a tube 2 mm in length (outer diameter, 1.2 mm) via choledocotomy and secured with a circumferential 8-0 silk suture. […] The suprahepatic vena cava was pulled down using a cotton tape passed around the host liver and cross-clamped with a baby Statinksy clamp. The vessels were divided and liver was removed. The donor suprahepatic vena cava was anstomosed end-to-end with the host suprahepatic vena cava with running 8-0 prolene. The portal vein and infra hepatic vena cava were anastomosed using the cuff technique described previously. The common bile duct of the donor was cannulated with the small tube residing in the host bile duct and tied in place. The hepatic artery was not reconstructed.
Some of the animals were sacrificed at day 3, 7 and 10 after transplantation and liver tissue, spleen and peripheral blood were collected.
To test this hypothesis, liver transplants from dark agouti (DA) rats into Lewis rats, i.e. the rejection model were performed. Recipient rats were treated with a hematopoietic stem cell mobilizer (plerixafor) and/or low dose immunosuppressant (tacrolimus). Transplanted rats were divided into four groups: 1) a control group treated with saline), 2) treatment with low dose immunosuppressant (tacrolimus, 0.1 mg/kg/day), 3) stem cell mobilizer (plerixafor (AMD3100), 1 mg/kg/day) alone, or 4) a combination of low dose tacrolimus and plerixafor.
In small liver transplantation rats, plerixafor and/or tacrolimus were injected subcutaneously immediately after reperfusion and on days 1, 2, 3 and 7 following transplantation. In whole liver transplantation rats, plerixafor and/or tacrolimus were injected subcutaneously immediately after reperfusion and on days 1, 2, 3, 7, 10 and 15 following transplantation. Animals from each group were sacrificed on post-op days 3, 7 and 10 and liver tissue, spleen and peripheral blood were collected.

[2] = tested on: whole liver allograft (DA into Lewis rats); assay: Whole liver transplantation, rejection model: survival; settings: s.c. day 0,1,2,3,7,10,15, controls rejected within twelve days
Method: In whole liver transplantation rats, plerixafor and/or tacrolimus were injected subcutaneously immediately after reperfusion and on days 1, 2, 3, 7, 10 and 15 following transplantation.

[3] = tested on: cell migration stimulated by CXCL12; settings: Peled et al.; cited from earlier work
[4] = tested on: CD34+, c-Kit+, Thy-1+ and Sca1+ cells in peripheral blood; settings: after liver transplantation, compared to control animals, AMD3100 1 mg/kg/day s.c.
Method: Single-cell suspensions (5×10^5) of peripheral blood monocytes were analyzed for CD34, CXCR4, c-Kit, Thy-1, and Sea-1 expression. Nonspecific antibody binding was blocked with goat and rat serum (Sigma) for 30 minutes.

[5] = tested on: skin allograft (DA into Lewis); assay: Skin allograft survival; settings: FK 0.1 mg/kg and/or AMD 1 mg/kg; controls rejected within 7 days
Method: DA rats or C57/B6 mice were used as skin donors and GFP transgenic Lewis rats were used as recipients. A graft bed (2.5×3 cm) was prepared on the back of a recipient rat; special care was given to preserving the panniculus carnosus. A 2.5×3 cm^2 graft, which had been prepared from the body trunk of a donor, was transplanted with interrupted sutures of 5-0 silk. The graft was covered with a protective tape and the first inspection was conducted 2 days after skin grafting and was followed by daily inspection. The rejection was defined as the day when the skin graft developed a red-brown color and hard consistency.
FK506 were injected subcutaneously every day following transplantation.

[6] = tested on: skin xenograft (C57/B6 mice into Lewis rats); assay: Skin xenograft survival, mouse into rat; format: in vivo; settings: FK 0.1 mg/kg and/or AMD 1 mg/kg
[7] = tested on: liver allografts (DA into GFP-Lewis rats); assay: Histology (H&E), GFP microscopy and Xenogen imaging of small liver allografts; format: in vivo, rat; settings: liver allografts 7 days after transplantation, versus control group
Method: Transplanted rats were divided by four groups: (1) control group (treated with same volume of saline); (2) low dose of immunosuppressant (FK-506, 0.1 mg/kg/day); (3) stem cell mobilizer (AMD3100, 1 mg/kg/day); and (4) combination of low dose FK-506 and AMD3100. AMD3100 and/or FK-506 were injected subcutaneously immediately after reperfusion and day 1, 2, 3 and 7 following liver transplantation (FIG. 1). Some of the animals were sacrificed at day 3, 7 and 10 after transplantation and liver tissue, spleen and peripheral blood were collected.
Histological changes in liver tissue sections were evaluated by H&E staining. Recipient-derived GFP positive cells in liver tissue sections were analyzed by confocal fluorescence microscopy.
GFP whole-organ fluorescence was measured using the Xenogen system.

[8] = tested on: c-Kit+, CD133+, Lin− Thy1+c-Kit+CD133+ cells in peripheral blood; assay: Mobilization of stem cells into peripheral blood (CBC and flow cytometry); format: in vivo, rat; settings: 3 hours after injection
Method: Single-cell suspensions (5×10^5) of peripheral blood monocytes were analyzed for lineage negative CD34, CD133, Thy1, and c-Kit expression. Nonspecific antibody binding was blocked with goat and rat serum (Sigma) for 30 minutes. Peripheral blood cells were isolated from animals at 3 hours after injection with AMD and/or FK. Complete blood count (CBC) was measured and stem cell markers were quantified by flow cytometry. The absolute number of stem cells was calculated as WBC (-thous./μL)×% of stem cells.

[9] = tested on: kidney allograft (DA to Lewis); assay: Orthotopic kidney transplantation, acute rejection model: survival; format: in vivo, rat; settings: FK 0.05 mg/kg and/or AMD 1 mg/kg s.c.; controls rejected within 10 days
Method: Specifically, the DA to Lewis model of acute rejection was studied. Briefly, donor kidneys obtained from male DA rats were flushed with 10 ml cold saline and were stored at 4° C. while the recipient to be prepared. Total cold ischemic time was no longer than 40 minutes. Lewis male recipients were transplanted following left native nephrectomy. The donor renal artery, vein and ureter were anastomosed to the recipient renal artery, vein and ureter. The anastomosis was completed using 10-0 silk sutures. The right native kidney was removed before closing the abdomen.
AMD3100 were injected subcutaneously immediately after reperfusion (day 0) and day 2, 4 and 6 following kidney transplantation. […] Treatments were repeated in combination treated group at 1, 2 and 3 months after transplantation. Some of animals were sacrificed at day 7 and 30 after transplantation and kidney tissue, spleen and peripheral blood were collected.

CXCR4 chomokin receptor = CXCR4 chomokin receptor (Homo sapiens, UniProt P61073); settings: Peled et al.; read-out: IC50, binds and inhibits CXCR4; cited from earlier work
Chain of CXCR4 chomokin receptor (P61073 whole entry): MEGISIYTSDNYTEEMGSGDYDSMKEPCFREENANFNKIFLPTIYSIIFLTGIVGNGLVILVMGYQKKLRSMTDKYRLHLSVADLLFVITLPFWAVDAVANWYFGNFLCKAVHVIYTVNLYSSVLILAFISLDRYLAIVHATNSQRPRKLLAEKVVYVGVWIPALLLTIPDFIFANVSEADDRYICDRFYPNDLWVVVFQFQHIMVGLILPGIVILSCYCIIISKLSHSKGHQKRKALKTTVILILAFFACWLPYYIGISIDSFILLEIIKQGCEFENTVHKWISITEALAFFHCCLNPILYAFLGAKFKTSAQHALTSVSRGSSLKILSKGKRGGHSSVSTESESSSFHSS

| Molecule | recipient survival / liver allograft acceptance ([1]; listed as AMD) | recipient survival / liver allograft acceptance ([1]; listed as plerixafor) | recipient survival [2] | IC50 [3] [nM] | percentage of CD34+, c-Kit+, Thy-1+ and Sca1+ cells in peripheral blood ([4]; listed as AMD) | percentage of CD34+, c-Kit+, Thy-1+ and Sca1+ cells in peripheral blood ([4]; listed as plerixafor) | skin allograft survival / acceptance [5] | skin xenograft survival [6] | mononuclear/inflammatory cellular infiltration in portal areas (H&E) ([7]; listed as AMD) | mononuclear/inflammatory cellular infiltration in portal areas (H&E) ([7]; listed as plerixafor) | absolute number of c-Kit+, CD133+ or Lin− and Thy1+c-Kit+CD133+ triple positive cells in peripheral blood ([8]; compared to saline or G-CSF treated animals) | recipient survival / kidney allograft acceptance [9] | recipient survival / liver allograft acceptance ([1]; listed as FK-506) | recipient survival / liver allograft acceptance ([1]; listed as tacrolimus) | survival of one of five recipients [1] [months] | survival of one of five recipients ([1]; 0.1 mg/kg/day) | mononuclear/inflammatory cellular infiltration in portal areas (H&E) [7] | mononuclear/inflammatory cellular infiltration in portal areas (H&E) ([7]; listed as FK-506) | c-Kit+ and CD133+ cells in peripheral blood ([8]; low-dose FK (0.1 mg/kg)) | IC50 (CXCR4 chomokin receptor) [nM] |
| --- | --- | --- | --- | --- | --- | --- | --- | --- | --- | --- | --- | --- | --- | --- | --- | --- | --- | --- | --- | --- |
| c1cc(CN2CCCNCCNCCCNCC2)ccc1CN1CCCNCCNCCCNCC1 [AMD3100, 1,1′-[1,4-phenylenebis(methylene)]bis-1,4,8,11-tetraazacyclo-tetradecane] | did not significantly prolong the recipient survival | did not significantly prolong recipient survival | did not significantly prolong recipient survival | 51 ± 17 | significantly increase | significantly increased | did not significantly prolong the allograft survival | did not prolong the xenograft survival | the number of infiltrating cells were less | the number of infiltrating cells was reduced | significantly increased | did not prolong the recipient survival | – | – | – | – | – | – | – | – |
| C=CC[C@@H]1/C=C(\C)C[C@H](C)C[C@H](OC)[C@H]2O[C@@](O)(C(=O)C(=O)N3CCCC[C@H]3C(=O)O[C@H](/C(C)=C/[C@@H]3CC[C@@H](O)[C@H](OC)C3)[C@H](C)[C@@H](O)CC1=O)[C@H](C)C[C@@H]2OC [Tacrolimus] | – | – | did not significantly prolong recipient survival | – | – | – | did not significantly prolong the allograft survival | did not prolong the xenograft survival | – | – | – | did not prolong the recipient survival | did not significantly prolong the recipient survival | did not significantly prolong recipient survival | 4 | more than 1 months | the number of infiltrating cells was reduced | the number of infiltrating cells were less | significantly increases | – |
| 4F-benzoyl-TN14003 [BKT140] | – | – | – | – | – | – | – | – | – | – | – | – | – | – | – | – | – | – | – | ~1 |
